The values below are quoted from earlier work in patent US20070190114A1, “Antioxidant health lozenges” (priority 2006, published 2007).

For data set [1] the following is noted: daily dose of 600 mg.
The next data set has as its system peripheral lymphocytes. As to conditions: peripheral lymphocytes in smokers.
In a further data set the test system is alveolar macrophages. As to conditions: alveolar macrophages in smokers.

Regarding `CC(=O)N[C@@H](CS)C(=O)O` [N-acetyl cysteine], the cancer chemopreventive effect entry in data set [1] is “effective cancer chemopreventive agent”.

On to `O=C(O[C@@H]1Cc2c(O)cc(O)cc2O[C@@H]1c1cc(O)c(O)c(O)c1)c1cc(O)c(O)c(O)c1` [epigallocatechin gallate], for which the sister-chromatid exchange result with peripheral lymphocytes is “stabilize sister-chromatid exchange in peripheral lymphocytes in smokers to a level comparable to non-smokers”. `Oc1ccc(C=Cc2cc(O)cc(O)c2)cc1` [resveratrol]: the “basal release of inflammatory cytokine” value in the data set with alveolar macrophages is listed as “inhibits basal release of inflammatory cytokine from alveolar macrophages in smokers”.
